The subject of one assay is B16F10 cells. Nature of the assay: Western blotting, temporal changes of AMPK, FAK, Akt, ERK1/2 (Test Example 11). It is filed as cell-based, mouse. Particulars: 3 µM; 3, 8, 24 and 56 hours. On the procedure: Specifically, for B16F10 cells treated with neopetasin (3 µM) or metformin (5000 µM) through the same method as in Test Example 1, the cells were recovered at each of 3 hours, 8 hours, 24 hours, and 56 hours after the treatment with these compounds, and the contents of various proteins were measured by Western blotting through the same method as in Test Example 10. Furthermore, DMSO was administered to the negative control section, and the same experiment was performed.
A general note: Immunoblotting shows a protein as a band on a membrane.

Assay [1] concerns mouse-derived metastatic breast cancer cells Jyg-MC(B). Nature of the assay: Mouse natural metastasis model (Test Example 12). In kind it is in vivo. The source says: In general, the metastasis process follows the course of primary tumor formation, invasion of blood vessels and lymphatic vessels, and fixation and proliferation to lung. Here, the model prepared in Test Example 2 verifies only kinetics of tumor cells after entry into the blood vessel, and the metastasis phenomenon occurring in the actual clinical example also includes other processes in addition to invasion of blood vessels and lymphatic vessels from the primary tumor. Thereupon, in this test example, a subcutaneous tumor (a primary tumor) was generated in a mouse, and a model in which the tumor cells metastasized to lung following all metastasis processes (a natural metastasis model) was prepared.
Specifically, to start with, in order to prepare a natural metastasis model, a nude mouse (BALBc nu/nu, female, 4 weeks old, purchased from Japan SLC) was subcutaneously inoculated with mouse-derived metastatic breast cancer cells Jyg-MC(B). After 24 days of incubation, neopetasin (NP) was administered intraperitoneally at a dose of 50 mg/kg and treated a total of 6 times for 16 days (inoculation at 0, 2, 4, 6, 10, 14 days, respectively). Note that treatment procedure at this time is illustrated in FIG. 13.

Assay [2] concerns CMeCl cells (canine malignant melanoma cells). As to the kind of experiment: Proliferation inhibition, CMeC1 cells, trypan blue viable cell count (Test Example 1). It is filed as cell-based. Particulars: for IC50: Cell line: CMeC1, incubated for 72 hours. On the procedure:
Four compounds of petasin, S-petasin, neopetasin and neo-S-petasin were evaluated for the inhibitory effect on proliferation of mouse or canine malignant melanoma cells by the following method.
B16F10 cells (mouse malignant melanoma cells) were obtained from JCRB Cell Bank (National Institutes of Biomedical Innovation, Health and Nutrition). In addition, CMeCl cells (canine malignant melanoma cells) were obtained from Veterinary Surgery Laboratory, Graduate School of Agricultural and Life Sciences, the University of Tokyo. Furthermore, A2058 cells (human malignant melanoma cells) were obtained from JCRB Cell Bank (National Institutes of Biomedical Innovation, Health and Nutrition). B16F10 cells were cultured in a 37° C. incubator (air/CO2 = 95/5 (v/v)) using Dulbecco’s modified Eagle’s medium (DMEM), CMeCl cells in RPMI (Roswell Park Memorial Institute) medium (RPMI1640), and A2058 cells in E-MEM medium.
First, CMeCl cells (canine malignant melanoma cells) were seeded in a six-well plate so as to be 0.5×10^5 cells/mL, and after 24 hours therefrom, each of the above four kinds of compounds (final concentration: 0.01 to 100 µg/mL) was suspended in the medium at a ratio of 0.1% and incubated for 72 hours. 72 hours after the start of culture, the number of viable cells was measured by trypan blue staining. At this time, viable cells (cell viability%) were calculated as the relative number of cells when the number of viable cells in a negative control section (DMSO treatment) was taken as 100%. Then, IC50 was calculated using a GraphPad Prism software system (GraphPad Software Inc.).

Where [3] appears, read: 50 mg/kg intraperitoneally, 6 times for 16 days.

Where two headings read alike, the source gives them in different places.

As to `C=C(C)[C@H]1C[C@@]2(C)C(=CC1=O)CC[C@@H](OC(=O)/C(C)=C\C)[C@@H]2C` [Neopetasin, neopetasin], in the assay on B16F10 cells, the AMPK change entry is “changes at the earliest stage (3 hours)”; the “Akt and ERK” value is reported as “inactivated”; the FAK result was “inactivated”. Moreover, in assay [1] (setting [3]), the lung metastasis lesions result is given as “significant decrease in lung metastasis lesions” and the “lymph node metastasis (weight of the axillary lymph node)” value was “exhibits an inhibitory effect on lymph node metastasis”. In addition, the “degree and weight of lymph node swelling” value in assay [1] (excluding examples without lymph node swelling) is reported as “decreased”. In assay [2] (72 hours), the “inhibitory effect on proliferation of CMeCl cells” value is listed as “showed the strongest activity”. Moreover, in assay [2] (Canis lupus familiaris, 72 h, read-out: IC50), the IC50 is 990 nM. In assay [2] (Canis lupus familiaris, 72 h, read-out: IC50 (µg/mL)), the IC50 is 0.314 µg/mL. In addition, the IC50 in assay [2] (read-out: IC50) worked out at 991 nM.
